Common to all, as to type: cell-based, human
For one test, the system named is HCT116 (R175H). Put plainly: Cell viability assay (CellTiterGlo), HCT116 R175H. As to conditions: Homo sapiens, HCT-116; 72 h, CellTiterGlo. Put shortly:
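Cells (6 × 10^3/well) were exposed to a range of compound concentrations or DMSO for 72 h, and viability was read by CellTiterGlo luminescence on an IVIS imager. Percent viability was calculated against each line's DMSO control, and IC50 was taken from sigmoidal dose-response curves.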

The test system of another test is PUMA. Put plainly: Western blot, PUMA induction. The following applies: five cell lines, 24 h. Put shortly:
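Cells treated with compounds for 24 h, then lysed. 15 μg protein separated by SDS-PAGE and immunoblotted. Bands detected by chemiluminescence.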
In general terms: A western blot detects proteins with antibodies after separation by electrophoresis.

The next test has as its system HCT116 (P53−/−). Put plainly: Cell viability assay (CellTiterGlo), HCT116 p53-/-. As to conditions: Homo sapiens, HCT-116; 72 h, CellTiterGlo. How it is done:
(§1) Figure 1 PG3 inhibits cell proliferation and growth in a p53-indepent manner. (A–E) Cell viability assay, dose response curves and IC50 value measurements in a panel of cancer cell lines and normal cells. Cells were treated with different concentrations of PG3, PG3-Oc (Oc), obatoclax (Ob), prodigiosin (P) or DMSO for 72 h. Luciferase activity was imaged by the IVIS Imaging System after treatment. Cell viability data were normalized to those of DMSO treatment control in each cell line and data analyses were performed using PRISM4 software. IC50 data are expressed as the mean ±SD (normal; n = 3).
as §1, with “2 p53-dependent inhibition of” for “1 PG3 inhibits”, “is only observed at specific concentrations. (A–J)” for “and growth in a p53-indepent manner. (A–E)”, “ZMC1, CP-313908, APR-246, Ellipticine, Nutalin-3a” for “PG3, PG3-Oc (Oc), obatoclax (Ob), prodigiosin (P)”
(§2) Cells were seeded in 96-well plates (6 × 10^3 cells/well). Cells were treated with different concentrations of compounds or dimethyl sulfoxide (DMSO) as a control for 72 hours. The cell viability was assessed by CellTiterGlo bioluminescent cell viability assay (Promega), following the manufacturer’s protocol. Bioluminescence imaging was measured using the IVIS imager. The percentage of cell viability (mean ± SEM) at each dose was calculated against the respective DMSO control. The IC50 values were determined from the sigmoidal dose-response curves using GraphPad Prism.
A general note: Cellular ATP, detected with luciferase, serves as a proxy for viable cell number.

The next test relates to ALAS1, UROD. Put plainly: Western blot, heme biosynthesis enzymes. How it is done:
Figure 8 Inhibition of heme biosynthesis leads to upregulation of ATF4. (A) HT29 cells were treated with SA and ONC201 for 20 hours. Western blotting was performed using the indicated antibodies. (B) HT29 cells were transfected with siCtrl, siHRI, siClpX, siALAS1, siClpX/siALAS1 and siClpX/siALAS1/siHRI for 48 hours. (C) HT29 cells were transfected with siCtrl, siLonP1, siClpP for 24 or 48 hours respectively, and then treated with ONC201 for 24 hours. (D) Proposed model of ONC201-induced cell apoptosis through ClpP/ALAS1/HRI/ATF4 axis. (E, F) Silencing of ClpP in HCT116 p53^−/− and MDA-MB-468 cells and then treated with PG3, PG3-Oc and ONC201. Western blot was performed using indicated antibodies.
After treatment, protein lysates were collected for Western blot analysis. A total of 15 μg of protein was used for SDS-PAGE. After primary and secondary antibody incubations, the signal was detected by a chemiluminescence detection kit, imaged by Syngene (Imgen Technologies). Antibodies for NAG-1 (GDF15) and P53 were from Santa Cruz Biotechnology; for caspase 8, cleaved caspase 8, caspase 9, caspase 3, cleavage PARP, eIF2α, p-eIF2α (Ser51), CHOP, ATF4, DR5, and PUMA were from Cell Signaling Technology. Noxa and p21 were from Calbiochem. Ran was from BD Biosciences.
Supplementary Figure 2: ROS and NO are not responsible for PG3-induced HRI activation. (A, B) cells were pre-treated
with ZnPP, L-NMMA, SA and NAC for 2 hours respectively, and then ONC201 or PG3 was added to the medium for 24 hour treatment.
Western blot was performed using indicated antibodies.
(1 picture or pasted object on this page, not shown here)

The test system of another test is HCT116 (WT). Put plainly: Cell viability assay (CellTiterGlo), HCT116 WT. As to conditions: Homo sapiens, HCT-116; 72 h, CellTiterGlo. How it is done: as §1
as §1, with “2 p53-dependent inhibition of” for “1 PG3 inhibits”, “is only observed at specific concentrations. (A–J)” for “and growth in a p53-indepent manner. (A–E)”, “ZMC1, CP-313908, APR-246, Ellipticine, Nutalin-3a” for “PG3, PG3-Oc (Oc), obatoclax (Ob), prodigiosin (P)”
as §2

For the next test, the system named is TOV-112D (R175H). Put plainly: Cell viability assay (CellTiterGlo), TOV-112D. How it is done:
as §1
as §1, with “2 p53-dependent inhibition of” for “1 PG3 inhibits”, “is only observed at specific concentrations. (A–J)” for “and growth in a p53-indepent manner. (A–E)”, “ZMC1, CP-313908, APR-246, Ellipticine, Nutalin-3a” for “PG3, PG3-Oc (Oc), obatoclax (Ob), prodigiosin (P)”
as §2

In another test the test system is p53 protein. Put plainly: Western blot, p53 protein levels. Put shortly:
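Cells treated with compounds for 24 h, then lysed; 15 μg protein per lane resolved by SDS-PAGE and immunoblotted. Antibody signal read by chemiluminescence imaging, with short and long exposures shown.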

In general, pIC50 refers to −log10 of the IC50, conventionally taken in molar units. A word on the IC50: it is the midpoint of a concentration-inhibition curve.

The structures appear in SMILES notation. pIC50: −log10 of the molar value. Where two headings read alike, the source gives them in different places.

Turning to `CCc1c(C)[nH]c(/C=C2\N=C(c3ccc[nH]3)C=C2OC)c1C` [PG3], the pIC50 in the test on HCT116 (R175H) is 7.18; in the test with HCT116 (P53−/−), 7.28; with HCT116 (WT), 7.15; in the test on TOV-112D (R175H) (Homo sapiens, TOV112D, 72 h, unit inferred, 'within the nanomolar range', read-out: IC50 value, TOV-112D), 6.92. Moreover, the “upregulation of PUMA” value in the test with PUMA is “consistently induce upregulation”. Moreover, in the test with ALAS1, UROD (24 hour treatment), the ALAS1 protein level entry is recorded as “does not lead to the downregulation of ALAS1”. The UROD protein levels entry in the test on ALAS1, UROD (western blot) is “do not have any effects”. In the test on TOV-112D (R175H) (Homo sapiens, TOV112D, 72 h, CellTiterGlo, read-out: IC50 values, TOV-1120 (R175H) (converted)), the IC50 was 126 nM. In the test with TOV-112D (R175H) (TOV-112D), the “fold less potent than PG3-Oc” value is on record as 3.3 fold. In addition, in the test on p53 protein (HCT116, 24 h), the “wild-type p53 protein level” value is reported as “do not upregulate expression”. In the test with p53 protein (HT29, 24 h), the “endogenous mutant p53 R273H protein level” value is on record as “no effects on stability”. Further, in the test on p53 protein (TOV-112D, 24 h), the “endogenous mutant p53 R175H protein level” value is on record as “no effects on stability”. The “exogenous mutant p53 R175H protein level” value in the test with p53 protein (engineered HCT116-R175H cells, 24 h) is reported as “stabilize”.
